Results from paper PMC4070292 (Molecular nutrition & food research, 2012).

Key:
[1] = tested on: TNF-α; assay: LPS-induced TNF-α release in macrophages; type: cell-based, murine; conditions: 100 ng/mL LPS
[2] = tested on: NF-κB; assay: NF-κB SEAP reporter gene assay in LPS-stimulated macrophages; type: cell-based, murine; conditions: 16 h; for decrease of NF-κB activity versus control / effect on LPS-induced NF-κB activity: LPS; for decrease of NF-κB activity versus control: 50 μM; for effect on LPS-induced NF-κB activity: doses as high as 100 μM; for effect on NF-κB activity without LPS: compound alone with diluent control; for effect on LPS-stimulated NF-κB activity: 100 ng/mL LPS, 25 μM
[3] = diet containing 0.2% pure apigenin for 7 days ref 47; cited from earlier work
[4] = rats, 14 mg luteolin/kg body weight by gavage, after 1 h ref 48; cited from earlier work

| SMILES | effect on LPS-induced TNF-α ([1]; 10–25 μM, data not shown) | effect on LPS-induced TNF-α ([1]; 8 h, doses as high as 100 μM) | decrease of NF-κB activity versus control [2] | effect on LPS-induced NF-κB activity [2] | effect on NF-κB activity without LPS [2] | effect on LPS-induced TNF-α ([1]; 8 h, doses as low as 10 μM) | effect on LPS-stimulated NF-κB activity [2] | apigenin in mouse plasma [3] [nM] | peak plasma concentration [4] [µM] |
| --- | --- | --- | --- | --- | --- | --- | --- | --- | --- |
| O=c1cc(-c2ccc(O)c(O)c2)oc2cc(O[C@@H]3O[C@H](CO)[C@@H](O)[C@H](O)[C@H]3O)cc(O)c12 [luteolin 7-O-glucoside] | no effect | no effect | not statistically significant | no effect | no effect | – | – | – | – |
| COc1cc(-c2cc(=O)c3c(O)cc(O)cc3o2)ccc1O [chrysoeriol, Chrysoeriol] | – | – | – | – | no effect | significant reduction | significantly reduced | – | – |
| O=c1cc(-c2ccc(O)cc2)oc2cc(O[C@@H]3O[C@H](CO)[C@@H](O)[C@H](O)[C@H]3O)cc(O)c12 [apigenin 7-O-glucoside] | no effect | no effect | not statistically significant | no effect | no effect | – | – | – | – |
| O=c1cc(-c2ccc(O)cc2)oc2cc(O)cc(O)c12 [apigenin] | – | – | – | – | – | significant reduction | – | 90 | – |
| O=c1cc(-c2ccc(O)c(O)c2)oc2cc(O)cc(O)c12 [luteolin] | – | – | – | – | no effect | significant reduction | significantly reduced | – | 6.9 |
